From US8158657B2, “Heterocycles substituted pyridine derivatives and antifungal agent containing thereof” (Eisai R&D Management Co., Ltd., priority 2005, dated 2012) come the findings set out here.

Assay [1] concerns C. albicans E81022 strain. Briefly: Experimental systemic candidal infection model in mice. In kind it is in vivo. Conditions: peroral, 3 times every 4 hours, female ICR mice, observed until 14 days after infection. The procedure: A standing culture of C. albicans E81022 strain was carried out for 48 hours at 30° C. in sabouraud dextrose agar medium (SDA), the recovered fungal cells were suspended in sterilized physiological saline. By counting the fungal number on cytometry plate, the suspension was diluted to 2×10^7 cells/mL with sterilized physiological saline to serve fungal inoculum.
The fungal inoculum was used in the amounts of 0.2 mL to inoculate 4.5 to 5.5 week-old female ICR mice in the tail vein (4×10^6 cells/mouse).
From 0.5 to 1 hour after fungal inoculation, 0.2 mL of agent solution (dissolved or suspended in sterilized physiological saline containing 6.5% dimethyl sulfoxide and 3.5% Tween 80) was administered into the stomach using a peroral probe, 3 times every 4 hours. The agent concentration was 2.5 mg/kg or 10 mg/kg, and the number of animals in one group was 5 animals.
The protective effect was determined by observing life/death until 14 days after infection and calculating the mean survival days.

Assay [2] concerns C. albicans CAF2-1 strain. Briefly: Anti-Candida activity, MIC measurement. Conditions: CAF21STRAIN, C. albicans CAF2-1, RPMI1640, 42-48 hours at 35° C., visual inspection, read-out: Anti-Candida Activity (minimum inhibitory concentration, MIC). In kind it is cell-based. The procedure, abridged: (§1)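 C. albicans CAF2-1 was grown 48 h at 30° C. in SDB and diluted in RPMI1640 to 1.2×10^3 cells/mL. Frozen A. fumigatus Tsukuba was diluted to 4.5×10^3 cells/mL. Compounds, two-fold serially diluted in DMSO from 2.5 mg/mL, were cultured aerobically with fungi for 42-48 h at 35° C.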

The test system of assay [3] is A. fumigatus Tsukuba strain. Put plainly: Anti-Aspergillus activity, MIC measurement. In kind it is cell-based. Particulars: RPMI1640, 42-48 hours at 35° C., visual inspection, read-out: Anti-Aspergillus Activity (minimum inhibitory concentration, MIC). The method in brief:
as §1

Molecules are shown by their SMILES. ≈ marks a conversion by molar mass, not a printed value.

With `Nc1ccc(-c2cnn(Cc3ccc(COc4ccccn4)cc3)c2)c(N)n1` [Example 37, 3-(1-(4-(Pyridin-2-yloxymethyl)-benzyl)-1H-pyrazol-4-yl)-pyridin-2,6-diamine], the “Mean Survival Days” value worked out at 5.4 days in assay [1] (2.5 mg/kg) and 14.0 days in assay [1] (10 mg/kg). Besides, the MIC is 0.39 µg/mL (≈ 1.05 µM) in assay [2] and 1.56 µg/mL (≈ 4.19 µM) in assay [3].
As for `Nc1ncccc1-c1cc(Cc2ccc(OCc3cc(Cl)ccn3)cc2)no1` [Example 51, 3-(3-(4-(4-Chloro-pyridin-2-ylmethoxy)-benzyl)-isoxazol-5-yl)-pyridin-2-ylamine], the “Mean Survival Days” value stood at 13.5 days in assay [1] (2.5 mg/kg) and 14.0 days in assay [1] (10 mg/kg). Further, the MIC in assay [2] was determined as 0.1 µg/mL (≈ 0.255 µM); in assay [3], 0.39 µg/mL (≈ 0.993 µM).
For the compound `Nc1ncccc1-c1cnn(Cc2ccc(OCc3ccccc3)cc2)c1` [Example 31, 3-(1-(4-Benzyloxy-benzyl)-1H-pyrazol-4-yl)-pyridin-2-ylamine], in assay [1] (10 mg/kg), the “Mean Survival Days” value came to 13.0 days. Besides, the MIC in assay [2] was found to be 0.2 µg/mL (≈ 0.561 µM); in assay [3] it was 0.39 µg/mL (≈ 1.09 µM).
As to `Nc1ncccc1-c1cc(Cc2ccc(COc3ccccn3)cc2)on1` [Example 30, 3-(5-(4-(Pyridin-2-yloxymethyl)-benzyl)-isoxazol-3-yl)-pyridin-2-ylamine], in assay [1] (2.5 mg/kg), the “Mean Survival Days” value was found to be 13.0 days. Also, the results for the MIC in assay [2] and in assay [3] were 0.1 µg/mL (≈ 0.279 µM) and 0.2 µg/mL (≈ 0.558 µM), respectively.
Consider `Nc1ccc(-c2cc(Cc3ccc(Oc4ccccc4)nc3)no2)c(N)n1` [Example 40, 3-(3-(6-Phenoxy-pyridin-3-ylmethyl)-isoxazol-5-yl)-pyridin-2,6-diamine], for which the “Mean Survival Days” value stood at 11.6 days in assay [1] (2.5 mg/kg) and 14.0 days in assay [1] (10 mg/kg). For the same compound, the MIC in assay [2] and in assay [3] was 0.39 µg/mL (≈ 1.09 µM) each time.
For `Cc1ccnc(COc2ccc(Cc3cc(-c4ccc(N)nc4N)on3)cc2)c1` [Example 24, 3-(3-(4-(4-Methyl-pyridin-2-ylmethoxy)-benzyl)-isoxazol-5-yl)-pyridin-2,6-diamine], the “Mean Survival Days” value stood at 7.4 days in assay [1] (2.5 mg/kg) and 14.0 days in assay [1] (10 mg/kg). The MIC in assay [2] stood at 0.39 µg/mL (≈ 1.01 µM); in assay [3], 0.78 µg/mL (≈ 2.01 µM).
`Nc1ccc(-c2cc(Cc3ccc(OCc4cc(Cl)ccn4)cc3)no2)c(N)n1` [Example 109, 3-(3-(4-(4-Chloro-pyridin-2-ylmethoxy)-benzyl)-isoxazol-5-yl)-pyridin-2,6-diamine]: the results for the “Mean Survival Days” value in assay [1] (2.5 mg/kg) and in assay [1] (10 mg/kg) were 11.0 days and 11.8 days, respectively. In addition, the MIC is 0.39 µg/mL (≈ 0.956 µM) in assay [2] and 0.78 µg/mL (≈ 1.91 µM) in assay [3].
The like results for `Cc1ccnc(OCc2ccc(Cc3cc(-c4cccnc4N)on3)cc2)c1` [Example 43, 3-(3-(4-(4-Methyl-pyridin-2-yloxymethyl)-benzyl)-isoxazol-5-yl)-pyridin-2-ylamine] were, in that order, 10.6 days, 14.0 days, 0.2 µg/mL (≈ 0.537 µM) and 0.39 µg/mL (≈ 1.05 µM).
The corresponding values for `Cc1ccc(-c2cc(Cc3ccc(COc4ccccn4)cc3)no2)c(N)n1` [Example 171] are 8.4 days, 12.6 days, 0.2 µg/mL (≈ 0.537 µM) and 0.39 µg/mL (≈ 1.05 µM).
The corresponding values for `Nc1ccc(-c2cc(Cc3ccc(CNc4ccccc4)cc3)no2)c(N)n1` [Example 133, 3-(3-(4-Phenylaminomethyl-benzyl)-isoxazol-5-yl)-pyridin-2,6-diamine] are 7.0 days, 13.4 days, 0.2 µg/mL (≈ 0.538 µM) and 0.39 µg/mL (≈ 1.05 µM).
As for `Cc1ccc(Cc2ccc(Cc3cc(-c4ccc(N)nc4N)on3)cc2)o1` [Example 105, 3-(3-(4-(5-Methyl-furan-2-ylmethyl)-benzyl)-isoxazol-5-yl)-pyridin-2,6-diamine], the “Mean Survival Days” value in assay [1] (2.5 mg/kg) stood at 5.4 days; in assay [1] (10 mg/kg), 12.8 days. The MIC in assay [2] and in assay [3] was 0.2 µg/mL (≈ 0.555 µM) throughout.
